{"source": "patent US10189854B2", "about": "“Substituted pyrimidine compounds” (Grünenthal GmbH, priority 2014, dated 2019)", "biological_target": "human PDE4B1 (Homo sapiens (Human), UniProt Q07343)", "sequence (Q07343 whole entry)": "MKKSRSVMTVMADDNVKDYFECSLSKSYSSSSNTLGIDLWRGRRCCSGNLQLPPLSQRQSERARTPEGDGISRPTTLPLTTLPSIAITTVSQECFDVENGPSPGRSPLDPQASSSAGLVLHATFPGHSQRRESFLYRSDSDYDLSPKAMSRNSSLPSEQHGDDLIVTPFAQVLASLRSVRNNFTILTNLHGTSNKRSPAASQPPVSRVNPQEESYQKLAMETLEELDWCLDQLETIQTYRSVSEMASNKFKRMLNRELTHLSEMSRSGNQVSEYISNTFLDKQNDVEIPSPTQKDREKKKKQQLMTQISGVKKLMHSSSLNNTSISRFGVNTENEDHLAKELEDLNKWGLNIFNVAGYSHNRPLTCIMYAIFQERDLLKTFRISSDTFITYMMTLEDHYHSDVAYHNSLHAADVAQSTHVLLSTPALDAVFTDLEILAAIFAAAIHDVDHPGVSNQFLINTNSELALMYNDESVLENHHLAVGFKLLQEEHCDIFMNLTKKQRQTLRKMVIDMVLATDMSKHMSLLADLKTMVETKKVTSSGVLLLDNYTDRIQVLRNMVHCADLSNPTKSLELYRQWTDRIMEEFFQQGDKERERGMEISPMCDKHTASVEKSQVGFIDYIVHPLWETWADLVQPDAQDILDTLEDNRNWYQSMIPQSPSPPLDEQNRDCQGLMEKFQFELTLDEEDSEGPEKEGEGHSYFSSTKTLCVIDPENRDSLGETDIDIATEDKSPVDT", "assay": "cAMP HTRF assay to determine the activity of hPDE4B1", "assay_type": "biochemical", "settings": "IC50 inhibition of PDE4B; human recombinant PDE4B1, cAMP HTRF assay", "experimental": "Biological Testing cAMP HTRF® Assay to Determine the Activity of hPDE4B1\nThe inhibiting effect of the compounds on the enzyme activity of human PDE4B1 was measured by the quantification of 5′-adenosine monophosphate (5′-AMP), which is formed from 3′,5′-cyclic adenosine monophosphate (cAMP). Human recombinant enzyme, expressed in Sf9 cells, and the HTRF (homogeneous time-resolved fluorescence) detection method were used in the assay.\nThe test compound or water (control) was mixed with the human recombinant PDE4B1 enzyme (4.8 U) in a buffer consisting of 44.4 mM tris-HCl, 5.28 mM MgCl2, 2.64 mM DTT and 0.044% Tween 20 (pH 7.8). After adding the cAMP enzyme substrate (final concentration 40 nM), the mixture was incubated for 30 minutes at room temperature. Then a fluorescence acceptor (Dye2 marked with cAMP), a fluorescence donor (anti-cAMP antibody marked with a europium cryptate) and the non-specific phosphodiesterase inhibitor IBMX (3-isobutyl-1-methylxanthine; final concentration 1 mM) were added. After 60 min the fluorescence transfer, which correlates with the amount of remaining cAMP, was measured with a microplate reader (Rubystar, BMG) at λex=337 nm, λem=620 nm and λem=665 nm. The enzyme activity was calculated from the quotient formed from the measured signal at 665 nm and that at 620 nm. The result was expressed as the percentage inhibition of enzyme activity of the control (without PDE4 inhibitor). The enzyme was omitted for measurement of the basal control.\n[N. Saldou et al., Comparison of recombinant human PDE4 isoforms: interaction with substrate and inhibitors, Cell. Signal. Vol. 10, No. 6, 427-440, 1998]. Several compounds according to the invention are tested in the above-described assay."}
{"compound": "NC(=O)c1cccc(-c2cnc(N3CC4(CC4)c4ccc(C(=O)N5CCOCC5)cc43)nc2)c1", "note": "[Compound 54, 3-[2-[6-(Morpholine-4-carbonyl)-spiro[1,2-dihydro-indole-3,1′-cyclopropane]-1-yl]-pyrimidin-5-yl]-benzamide]", "values": [{"measurement": "IC50", "result": "< 0.1", "unit": "µM"}]}
{"compound": "O=C1CN(C(=O)c2ccc3c(c2)N(c2ncc(-c4ccccc4F)cn2)CC32CC2)CCN1", "note": "[Compound 4, 4-[1-[5-(2-Fluorophenyl)-pyrimidin-2-yl]-spiro[1,2-dihydro-indole-3,1′-cyclopropane]-6-carbonyl]-piperazin-2-one]", "values": [{"measurement": "IC50", "result": "< 0.1", "unit": "µM"}]}
{"compound": "CN(CCO)C(=O)c1ccc2c(c1)N(c1ncc(-c3cccc(F)c3)cn1)CC21CC1", "note": "[Compound 129, 1-[5-(3-Fluorophenyl)-pyrimidin-2-yl]-N-(2-hydroxy-ethyl)-N-methyl-spiro[1,2-dihydro-indole-3,1′-cyclopropane]-6-carboxylic acid amide]", "values": [{"measurement": "IC50", "result": "< 0.1", "unit": "µM"}]}
{"compound": "O=C(c1ccc2c(c1)N(c1ncc(-c3ccccc3C3CC3)cn1)CC21CC1)N1CCOCC1", "note": "[Compound 62, [1-[5-(2-Cyclopropyl-phenyl)-pyrimidin-2-yl]-spiro[1,2-dihydro-indole-3,1′-cyclopropane]-6-yl]-morpholin-4-yl-methanone]", "values": [{"measurement": "IC50", "result": "1 to 10", "unit": "µM"}]}
{"compound": "O=C(NCC1CCOCC1)c1ccc2c(c1)N(c1ncc(-c3ccccc3F)cn1)CC21CC1", "note": "[Compound 82, 1-[5-(2-Fluorophenyl)-pyrimidin-2-yl]-N-(tetrahydro-pyran-4-yl-methyl)-spiro[1,2-dihydro-indole-3,1′-cyclopropane]-6-carboxylic acid amide]", "values": [{"measurement": "IC50", "result": "1 to 10", "unit": "µM"}]}
{"compound": "COc1cccc(F)c1-c1cnc(N2CC3(CC3)c3ccc(C(=O)N4CCOCC4)cc32)nc1", "note": "[Compound 19, [1-[5-(2-Fluoro-6-methoxy-phenyl)-pyrimidin-2-yl]-spiro[1,2-dihydro-indole-3,1′-cyclopropane]-6-yl]-morpholin-4-yl-methanone]", "values": [{"measurement": "IC50", "result": "0.1 to 1", "unit": "µM"}]}
{"compound": "CN(Cc1ccco1)C(=O)c1ccc2c(c1)N(c1ncc(-c3ccccc3F)cn1)CC21CC1", "note": "[Compound 91, 1-[5-(2-Fluorophenyl)-pyrimidin-2-yl]-N-(furan-2-yl-methyl)-N-methyl-spiro[1,2-dihydro-indole-3,1′-cyclopropane]-6-carboxylic acid amide]", "values": [{"measurement": "IC50", "result": "0.1 to 1", "unit": "µM"}]}
{"compound": "Cc1n[nH]c(C)c1-c1cnc(N2CC3(CC3)c3ccc(C(=O)N4CCOCC4)cc32)nc1", "note": "[Compound 144, [1-[5-(3,5-Dimethyl-1H-pyraozl-4-yl)-pyrimidin-2-yl]-spiro[1,2-di-hydro-indole-3,1′-cyclopropane]-6-yl]-morpholin-4-yl-methanone]", "values": [{"measurement": "IC50", "result": "< 0.1", "unit": "µM"}]}
{"compound": "O=C(c1ccc2c(c1)N(c1ncc(-c3ccccc3F)cn1)CC21CC1)N1CCSCC1", "note": "[Compound 93, [1-[5-(2-Fluorophenyl)-pyrimidin-2-yl]-spiro[1,2-dihydro-indole-3,1′-cyclopropane]-6-yl]thiomorpholin-4-yl-methanone]", "values": [{"measurement": "IC50", "result": "< 0.1", "unit": "µM"}]}
{"compound": "N#Cc1cccc(F)c1-c1cnc(N2CC3(CC3)c3ccc(C(=O)N4CCOCC4)cc32)nc1", "note": "[Compound 20, 3-Fluoro-2-[2-[6-(morpholine-4-carbonyl)-spiro[1,2-dihydro-indole-3,1′-cyclopropane]-1-yl]-pyrimidin-5-yl]-benzonitrile]", "values": [{"measurement": "IC50", "result": "0.1 to 1", "unit": "µM"}]}
{"compound": "N#Cc1ccccc1-c1cnc(N2CC3(CC3)c3ccc(C(=O)N4CCOCC4)cc32)nc1", "note": "[Compound 18, 2-[2-[6-(Morpholine-4-carbonyl)-spiro[1,2-dihydro-indole-3,1′-cyclopropane]-1-yl]-pyrimidin-5-yl]-benzonitrile]", "values": [{"measurement": "IC50", "result": "0.1 to 1", "unit": "µM"}]}
{"compound": "O=C(c1ccc2c(c1)N(c1ncc(-c3cncc(F)c3)cn1)CC21CC1)N1CCOCC1", "note": "[Compound 157, [1-[5-(5-Fluoro-pyridin-3-yl)-pyrimidin-2-yl]-spiro[1,2-dihydro-indole-3,1′-cyclopropane]-6-yl]-morpholin-4-yl-methanone]", "values": [{"measurement": "IC50", "result": "< 0.1", "unit": "µM"}]}
{"compound": "[1-[5-(6-Chloro-pyrimidin-4-yl)-pyrimidin-2-yl]-spiro[1,2-dihydro-indole-3,1′-cyclopropane]-6-yl]-morpholin-4-yl-methanone [Compound 206]", "values": [{"measurement": "IC50", "result": "< 0.1", "unit": "µM"}]}
{"compound": "CN1CCN(C(=O)c2ccc3c(c2)N(c2ncc(-c4ccccc4F)cn2)CC32CC2)CC1", "note": "[Compound 60, [1-[5-(2-Fluorophenyl)-pyrimidin-2-yl]-spiro[1,2-dihydro-indole-3,1′-cyclopropane]-6-yl]-(4-methyl-piperazin-1-yl)-methanone]", "values": [{"measurement": "IC50", "result": "< 0.1", "unit": "µM"}]}
{"compound": "O=C(c1ccc2c(c1)N(c1ncc(-c3ccc(F)cn3)cn1)CC21CC1)N1CCOCC1", "note": "[Compound 165, [1-[5-(5-Fluoro-pyridin-2-yl)-pyrimidin-2-yl]-spiro[1,2-dihydro-indole-3,1′-cyclopropane]-6-yl]-morpholin-4-yl-methanone]", "values": [{"measurement": "IC50", "result": "< 0.1", "unit": "µM"}]}
{"compound": "N-(2-Hydroxy-ethyl)-1-[5-(3-methoxyphenyl)-pyrimidin-2-yl]-N-methyl-spiro[1,2-dihydro-indole-3,1′-cyclopropane]-6-carboxylic acid amide [Compound 197]", "values": [{"measurement": "IC50", "result": "< 0.1", "unit": "µM"}]}
{"compound": "O=C(c1ccc2c(c1)N(c1ncc(-c3cn[nH]c3C(F)(F)F)cn1)CC21CC1)N1CCOCC1", "note": "[Compound 140, Morpholin-4-yl-[1-[5-[5-(trifluoromethyl)-1H-pyrazol-4-yl]-pyrimidin-2-yl]-spiro[1,2-dihydro-indole-3,1′-cyclopropane]-6-yl]-methanone]", "values": [{"measurement": "IC50", "result": "< 0.1", "unit": "µM"}]}
{"compound": "O=C(c1ccc2c(c1)N(c1ncc(-c3ccc(CO)s3)cn1)CC21CC1)N1CCOCC1", "note": "[Compound 149, [1-[5-[5-(Hydroxymethyl)-thiophen-2-yl]-pyrimidin-2-yl]-spiro[1,2-dihydro-indole-3,1′-cyclopropane]-6-yl]-morpholin-4-yl-methanone]", "values": [{"measurement": "IC50", "result": "< 0.1", "unit": "µM"}]}
{"compound": "O=C1CN(C(=O)c2ccc3c(c2)N(c2ncc(-c4ccccc4)cn2)CC32CC2)CCN1", "note": "[Compound 55, 4-[1-(5-Phenyl-pyrimidin-2-yl)-spiro[1,2-dihydro-indole-3,1′-cyclopropane]-6-carbonyl]-piperazin-2-one]", "values": [{"measurement": "IC50", "result": "< 0.1", "unit": "µM"}]}
{"compound": "NC(=O)c1ccc(-c2cnc(N3CC4(CC4)c4ccc(C(=O)N5CCNCC5)cc43)nc2)c(F)c1", "note": "[Compound 119, 3-Fluoro-4-[2-[6-(piperazine-1-carbonyl)-spiro[1,2-dihydro-indole-3,1′-cyclopropane]-1-yl]-pyrimidin-5-yl]-benzamide]", "values": [{"measurement": "IC50", "result": "< 0.1", "unit": "µM"}]}
{"compound": "O=C(c1ccc2c(c1)N(c1ncc(-c3ccccc3F)cn1)CC21CC1)N1CCCCC1", "note": "[Compound 84, [1-[5-(2-Fluorophenyl)-pyrimidin-2-yl]-spiro[1,2-dihydro-indole-3,1′-cyclopropane]-6-yl]-piperidin-1-yl-methanone]", "values": [{"measurement": "IC50", "result": "< 0.1", "unit": "µM"}]}
{"compound": "NC(=O)c1ccc(-c2cnc(N3CC4(CC4)c4ccc(C(=O)N5CCOCC5)cc43)nc2)s1", "note": "[Compound 152, 5-[2-[6-(Morpholine-4-carbonyl)-spiro[1,2-dihydro-indole-3,1′-cyclopropane]-1-yl]-pyrimidin-5-yl]-thiophene-2-carboxylic acid amide]", "values": [{"measurement": "IC50", "result": "0.1 to 1", "unit": "µM"}]}
{"compound": "NC(=O)c1cccc(F)c1-c1cnc(N2CC3(CC3)c3ccc(C(=O)N4CCOCC4)cc32)nc1", "note": "[Compound 32, 3-Fluoro-2-[2-[6-(morpholine-4-carbonyl)-spiro[1,2-dihydro-indole-3,1′-cyclopropane]-1-yl]-pyrimidin-5-yl]-benzamide]", "values": [{"measurement": "IC50", "result": "0.1 to 1", "unit": "µM"}]}
{"compound": "Cc1ccc(F)c(-c2cnc(N3CC4(CC4)c4ccc(C(=O)N5CCOCC5)cc43)nc2)c1", "note": "[Compound 52, [1-[5-(2-Fluoro-5-methyl-phenyl)-pyrimidin-2-yl]-spiro[1,2-dihydro-indole-3,1′-cyclopropane]-6-yl]-morpholin-4-yl-methanone]", "values": [{"measurement": "IC50", "result": "< 0.1", "unit": "µM"}]}
{"compound": "CC1COCCN1C(=O)c1ccc2c(c1)N(c1ncc(-c3ccccc3F)cn1)CC21CC1", "note": "(stereo not drawn) [Compound 103, [1-[5-(2-Fluorophenyl)-pyrimidin-2-yl]-spiro[1,2-dihydro-indole-3,1′-cyclopropane]-6-yl]-(3-methyl-morpholin-4-yl)-methanone]", "values": [{"measurement": "IC50", "result": "< 0.1", "unit": "µM"}]}
{"compound": "O=C(c1ccc2c(c1)N(c1ncc(-c3ccccc3F)cn1)CC21CC1)N1CC2(CCNC2)C1", "note": "[Compound 111]", "values": [{"measurement": "IC50", "result": "1 to 10", "unit": "µM"}]}
{"compound": "[1-[5-(4-Amino-pyridin-2-yl)-pyrimidin-2-yl]-spiro[1,2-dihydro-indole-3,1′-cyclopropane]-6-yl]-morpholin-4-yl-methanone [Compound 181]", "values": [{"measurement": "IC50", "result": "< 0.1", "unit": "µM"}]}
{"compound": "O=C(c1ccc2c(c1)N(c1ncc(-c3sccc3Cl)cn1)CC21CC1)N1CCOCC1", "note": "[Compound 133, [1-[5-(3-Chloro-thiophen-2-yl)-pyrimidin-2-yl]-spiro[1,2-dihydro-indole-3,1′-cyclopropane]-6-yl]-morpholin-4-yl-methanone]", "values": [{"measurement": "IC50", "result": "0.1 to 1", "unit": "µM"}]}
{"compound": "O=C(c1ccc2c(c1)N(c1ncc(-c3ccccn3)cn1)CC21CC1)N1CCOCC1", "note": "[Compound 150, Moprholin-4-yl-[1-(5-pyridin-2-yl-pyrimidin-2-yl)-spiro[1,2-dihydro-indole-3,1′-cyclopropane]-6-yl]-methanone]", "values": [{"measurement": "IC50", "result": "< 0.1", "unit": "µM"}]}
{"compound": "CN(C)C(=O)c1ccc2c(c1)N(c1ncc(-c3ccccc3F)cn1)CC21CC1", "note": "[Compound 2, 1-[5-(2-Fluorophenyl)-pyrimidin-2-yl]-N,N-dimethyl-spiro[1,2-dihydro-indole-3,1′-cyclopropane]-6-carboxylic acid amide]", "values": [{"measurement": "IC50", "result": "< 0.1", "unit": "µM"}]}
